According to patent US20090130707A1, “Methods of reducing the inhibitory effect of a redox active metal ion on the enzymatic hydrolysis of cellulosic material” (priority 2007, published 2009):
Like-named read-outs stand apart in the source and are kept apart here.

How the values were obtained:
[1] = cited from earlier work; for Radius: ionic radii in crystals, 6-ligand coordination
[2] = test system: Cellulolytic Enzyme Composition #1; experiment: mini-plate-scale AVICEL hydrolysis by Cellulolytic Enzyme Composition #1; assay type: biochemical, Trichoderma reesei; details: for Effect on hydrolysis (in words) / Effect on enzymatic cellulolysis: gain in initial rate / Effect on enzymatic cellulolysis: gain in extended hydrolysis extent / Effect on enzymatic cellulolysis: loss in initial rate / Effect on enzymatic cellulolysis: loss in extended hydrolysis extent: 10 mM; for Effect on enzymatic cellulolysis: gain in initial rate / Effect on enzymatic cellulolysis: gain in extended hydrolysis extent / Effect on enzymatic cellulolysis: loss in initial rate / Effect on enzymatic cellulolysis: loss in extended hydrolysis extent: 25 g AVICEL and 0.25 g enzyme per liter, pH 5, 50° C.; for Effect on enzymatic cellulolysis: gain in extended hydrolysis extent / Effect on enzymatic cellulolysis: loss in extended hydrolysis extent: after 4 days; for IC50: AVICEL hydrolysis, 0.2 to 2 mM inhibitor
Experimental: Various (biologically common) divalent metal cations with variable ionic radii were tested in 2.8 ml Deep Well Microplates (VWR International, West Chester, Pa., USA) (“mini-plate-scale”) containing 1 ml suspensions of 25 g of AVICEL® per liter in 50 mM sodium acetate pH 5 at 50° C. Cellulolytic Enzyme Composition #1 was added at 0.25 g per liter for each hydrolysis. The mini-plates were sealed at 160° C. for 2 seconds using an ABGENE® ALPS 300™ sealer (ABgene, Rochester, N.Y., USA). The sealed mini-plates were incubated at 50° C. in an INNOVA® 4080 incubator shaker at 150 rpm. Soluble reducing sugars were measured by HPLC as described in Example 30.
Iron-chelator complexes of variable size or redox property were tested for their ability to inhibit enzymatic hydrolysis of cellulose. […]

[3] = single-electron redox potential vs NHE
[4] = read-out: I50 estimated based on limited data
[5] = single-electron oxidation potential of iron-chelator complexes

Row | Compound | Radius [1] [Å] | E° [1, 3] [V] | Effect on hydrolysis (in words) [2] | Effect on enzymatic cellulolysis: gain in initial rate [2] | Effect on enzymatic cellulolysis: gain in extended hydrolysis extent [2] | E° ([1]; 2-electron E° (in parenthesis)) | Effect on enzymatic cellulolysis: loss in initial rate [2] | Effect on enzymatic cellulolysis: loss in extended hydrolysis extent [2] | IC50 [2, 4] [mM] | IC50 ([2]; read-out: I50) [mM] | E° [1, 5] | Effect on hydrolysis over concentration range ([2]; 0.1 to 10 mM)
1 | [Ca+2].[Cl-].[Cl-] [Ca(II), CaCl2] | 1.00 | −0.96 | slight enhancement | ~20% gain in initial rate, ~20% gain in extended hydrolysis extent | ~20% gain in initial rate, ~20% gain in extended hydrolysis extent |  |  |  |  |  |  | 
2 | O=S(=O)([O-])[O-].[Co+2] [Co(II), CoSO4] | 0.65 |  | slight or moderate inhibition |  |  | (−0.28) V | ~10% | no change |  |  |  | 
3 | [Cl][Cr]([Cl])[Cl] [Cr(III), CrCl3] | 0.62 | −0.407 | moderate |  |  |  | ~40% loss in initial rate, ~40% loss in extended hydrolysis extent | ~40% loss in initial rate, ~40% loss in extended hydrolysis extent | > 10 |  |  | 
4 | O=S(=O)([O-])[O-].[Cu+2] [Cu(II), CuSO4] | 0.73 | 0.153 |  |  |  |  | ~90% | ~80% |  | 0.2 |  | 
5 | O=C([O-])CN(CCN(CC(=O)[O-])CC(=O)[O-])CC(=O)[O-].[Fe+2].[Na+].[Na+] [Fe(II)Na2EDTA, FeNa2EDTA] |  |  |  |  |  |  | ~80% loss in initial rate, ~80% loss in extended hydrolysis extent | ~80% loss in initial rate, ~80% loss in extended hydrolysis extent | < 10 |  | (=Fe(III)NaEDTA's) | 
6 | O=C([O-])CN(CCN(CC(=O)[O-])CC(=O)[O-])CC(=O)[O-].[Fe+3].[Na+] [Fe(III)NaEDTA, FeNa(EDTA)] |  |  |  |  |  |  | ~10% | ~20% | ~10 |  | 0.13^2 V | 
7 | [Cl-].[Cl-].[Mg+2] [Mg(II), MgCl2] | 0.72 | −0.33 | slight enhancement | ~20% gain in initial rate, ~20% gain in extended hydrolysis extent | ~20% gain in initial rate, ~20% gain in extended hydrolysis extent |  |  |  |  |  |  | 
8 | O=S(=O)([O-])[O-].[Mn+2] [Mn(II), MnSO4] | 0.67 |  | slight or moderate inhibition |  |  | (−1.185) V | ~10% | no change |  |  |  | no effect
9 | [Cl][Ni][Cl] [Ni(II), NiCl2] | 0.69 | −1.56 | slight or moderate inhibition |  |  |  | ~20% | ~10% |  |  |  | 
10 | [Cl][Ru]([Cl])[Cl] [Ru(III), RuCl3] | 0.68 | 0.249 | pronounced |  |  |  | ~90% | ~80% |  | 0.15 |  | 
11 | O=S(=O)([O-])[O-].[Zn+2] [Zn(II), ZnSO4] | 0.74 | −2.3 | slight or moderate inhibition |  |  |  | ~20% loss in initial rate, ~20% loss in extended hydrolysis extent | ~20% loss in initial rate, ~20% loss in extended hydrolysis extent |  |  |  | 
12 | Fe(2,2′-bipyridyl)3Cl2 [Fe(II)(2,2′BP)2Cl2] |  |  |  |  |  |  | ~40% loss in initial rate, ~40% loss in extended hydrolysis extent | ~40% loss in initial rate, ~40% loss in extended hydrolysis extent |  | 20 |  | 
13 | Fe(2,2′-bipyridyl)3Cl3 [Fe(III)(2,2′BP)2Cl3] |  |  |  |  |  |  | ~100% loss in initial rate, ~100% loss in extended hydrolysis extent | ~100% loss in initial rate, ~100% loss in extended hydrolysis extent |  | 0.6 ± 0.1 | 0.78 V | 
14 | quinone [reference compound] |  |  |  |  |  |  |  |  | ~5 |  |  | 
